This is an account of results in publication PMC10222270, “Natural Product-Based Screening for Lead Compounds Targeting SARS CoV-2 M^pro” (Pharmaceuticals, 2023).

Values joined by “and” are separate entries in the source; they are usually repeats but may differ in a detail not shown here. Equal entries are not always repeated. Structures can show the parent of a compound that is named as a salt. Where two headings read alike, the source gives them in different places.

In assay [1] the target is T1, SARS CoV-2 M^pro (Severe acute respiratory syndrome coronavirus 2, UniProt P0DTD1).
T1 construct: The main protease (M^pro) is a part of the polyprotein chain, also named 3C-like protease; SUMO (cleaved yes); His; made in house; host or cells: Escherichia coli BL21(DE3)
Briefly: biochemical. It is filed as biochemical. The note with it: for inhibition at 80 µM: read-out: Inhibition%(80μM).

For assay [2], the target named is T1, SARS CoV-2 M^pro. Briefly: nanoDSF thermal shift assay (TSA). It is filed as binding. The note with it: for △T: versus M^pro+DMSO; for Kd: x-intercept of linear regression of ΔTm on log10 of compound concentration, read-out: Kobs.
In assay [3] the target is T1, SARS CoV-2 M^pro. In words: Surface plasmon resonance (SPR) binding to biotinylated M^pro. The note with it: for binding trend to M^pro: SPR, single concentration 200 μM. On the technique in general: In SPR one partner is held on a chip, and binding of the other changes the refractive index at the surface.
Setting [4] is: 0.02%(v/v) Triton X−100 in buffer.

As for `O=c1cc(-c2ccccc2)oc2cc(O)c(O)c(O)c12` [baicalein, Baicalein, reference compound], the inhibition at 80 µM on SARS CoV-2 M^pro [1] (80 μM compound, first value column of Table S2) came out at 99.9%; at SARS CoV-2 M^pro [1] (80 μM compound, second value column of Table S2), 101%; on SARS CoV-2 M^pro [1] (80 μM compound, third value column of Table S2), 98.7%. Also, the “Tm of M^pro” value at SARS CoV-2 M^pro [2] (compound 3.125 μM) turned out to be 55.2 °C; at SARS CoV-2 M^pro [2] (compound 50 μM), 56.6 °C; on SARS CoV-2 M^pro [2] (compound 200 μM) it was 57.0 °C. In addition, the results for the “△T” value at SARS CoV-2 M^pro [2] (compound 3.125 μM), on SARS CoV-2 M^pro [2] (compound 50 μM) and on SARS CoV-2 M^pro [2] (compound 200 μM) were 0.3 °C, 1.7 °C and 2.1 °C, respectively.

As for `CC(=O)OCCc1ccc(O)c(O)c1` [hydroxytyrosol acetate, Hydroxytyrosol Acetate], at SARS CoV-2 M^pro [1], the “Inhibition%(80μM)” value is 103.09% and 102.91%; the inhibition at 80 µM turned out to be 103%. The same compound came in with an IC50 against SARS CoV-2 M^pro [1] (setting [4]) of 3780 ± 453 nM. Besides, half-maximal inhibition against SARS CoV-2 M^pro [1] (Without Triton X−100) (IC50) required 3850 ± 576 nM. Also, the “binding trend to M^pro” value at SARS CoV-2 M^pro [3] is “no binding trends”.

Turning to `CC(C)=CC[C@H](OC(=O)C=C(C)C)C1=CC(=O)c2c(O)ccc(O)c2C1=O` [β,β–dimethylacrylalkannin, β,β-Dimethylacrylalkannin], on SARS CoV-2 M^pro [1], the “Inhibition%(80μM)” value is 99.09% and 97.96%; the inhibition at 80 µM came out at 100%. At SARS CoV-2 M^pro [1] (setting [4]), this compound had a concentration for half-maximal inhibition (IC50) of 2890 ± 185 nM. On SARS CoV-2 M^pro [1] (Without Triton X−100), this compound registered a 50% inhibitory concentration (IC50) of 2730 ± 308 nM. Moreover, at SARS CoV-2 M^pro [2] (compound 50 μM), the “Tm of M^pro” value was 57.7 °C and the “△T” value is 2.8 °C. Besides, at SARS CoV-2 M^pro [2] (compound 200 μM), the “Tm of M^pro” value was determined as 58.3 °C and the “△T” value worked out at 3.4 °C. In addition, the Kd on SARS CoV-2 M^pro [2] was 1900 nM.

In the case of `COc1cc(C(=S)N2CCOCC2)ccc1O` [vanitiolide, Vanitiolide], the “Inhibition%(80μM)” value at SARS CoV-2 M^pro [1] was 99.16% and 98.95%. In addition, the IC50 against SARS CoV-2 M^pro [1] (setting [4]) turned out to be 1420 ± 76 nM; on SARS CoV-2 M^pro [1] (Without Triton X−100) it was 2840 ± 225 nM. The inhibition at 80 µM on SARS CoV-2 M^pro [1] worked out at 99.1%. Also, on SARS CoV-2 M^pro [3], the “binding trend to M^pro” value is listed as “no binding trends”.

Turning to `CC(C)CCCC(C)C1CCC2C3CC=C4CC(OS(=O)(=O)O)CCC4(C)C3CCC12C` (centres unmarked) [cholesteryl sodium sulfate, Cholesteryl sodium sulfate], on SARS CoV-2 M^pro [1], the “Inhibition%(80μM)” value is 100.30% and 100.48%. On SARS CoV-2 M^pro [1] (Without Triton X−100), this compound showed an IC50 of 2740 ± 234 nM. Moreover, the inhibition at 80 µM at SARS CoV-2 M^pro [1] turned out to be 100%. Also, the results for the “Tm of M^pro” value on SARS CoV-2 M^pro [2] (compound 3.125 μM), at SARS CoV-2 M^pro [2] (compound 50 μM) and on SARS CoV-2 M^pro [2] (compound 200 μM) were 55.0 °C, 54.1 °C and 48.9 °C, respectively. The “△T” value is 0.1 °C at SARS CoV-2 M^pro [2] (compound 3.125 μM), -0.8 °C at SARS CoV-2 M^pro [2] (compound 50 μM) and -6.0 °C on SARS CoV-2 M^pro [2] (compound 200 μM). Further, the Kd at SARS CoV-2 M^pro [2] was 7600 nM.

Regarding `COc1cc2ccc(=O)oc2c(O)c1O` [fraxetin, Fraxetin], at SARS CoV-2 M^pro [1], the “Inhibition%(80μM)” value is 97.85% and 96.97%; the inhibition at 80 µM stood at 96.8%. For the same compound, half-maximal inhibition at SARS CoV-2 M^pro [1] (setting [4]) (IC50) required 1300 ± 208 nM. This compound registered an IC50 on SARS CoV-2 M^pro [1] (Without Triton X−100) of 2490 ± 178 nM. The “binding trend to M^pro” value on SARS CoV-2 M^pro [3] was “no binding trends”.

For the compound `CCCCCC/C=C\CCCCCCCc1cccc(O)c1C(=O)O` [ginkgolic acid C15:1, Ginkgolic Acid C15:1], at SARS CoV-2 M^pro [1], the “Inhibition%(80μM)” value was determined as 107.06% and the inhibition at 80 µM was 104%. Besides, the concentration for half-maximal inhibition (IC50) against SARS CoV-2 M^pro [1] (Without Triton X−100) was 9350 ± 531 nM. Besides, on SARS CoV-2 M^pro [3] (SPR multi-cycle mode, steady-state affinity, PBST, 7% DMSO), the Kd was 227000 nM.

For orientation: inhibition means the drop in the measured response relative to a control, in per cent. A word on the IC50: it is the point on the concentration scale where inhibition reaches its midpoint.
